Patent US20240285670A1, “THERAPEUTIC TREATMENT OF TUMORS BY BLOCKING THE HEME SYNTHESIS-EXPORT AXIS” (Università degli Studi di Torino, priority 2021, published 2024)

Key:
Caco2 cells = assay: Flow cytometric analysis of apoptosis in Caco2 cells; type: cell-based, human; conditions: FLVCR1a-silenced vs scramble shRNA, synchronized Caco2 cells
Text: (A) Proliferation of Caco2 cells assessed by crystal violet staining at the indicated days; bar=1000 μm. […] Staining quantification is reported in the bar graph as percentage of crystal violet stained area. Data represent mean±SEM, n=4. For statistical analyses, a two-way analysis of variance was used, followed by the Bonferroni correction for multiple group comparisons; *=p<0.05, ***=p<0.001. (B) Caco2 cells viability the day of plating (day 0) and three days after plaiting (day 3). The measure is considered a readout of cell proliferation. […] Data represent mean±SEM, n=3 wells. For statistical analyses, a two-way analysis of variance was used, followed by the Bonferroni correction for multiple group comparisons; *=p<0.05, **=p<0.01. (C, D, E) Representative flow cytometric analyses of apoptosis in synchronized Caco2 (C), SKCO1 (D) and C80 (E) cells. […] Data represent mean±SEM, n=4 wells pooled from two independent experiments. For statistical analyses, an unpaired Student's t-test was used; *=p<0.05, **=p<0.01. […]
Stained cells were analyzed using a FACSCanto II cytofluorimeter and processed with BD FACSDIVA Software v8.1 (BD Biosciences, Milan, IT; http://www.bdbiosciences.com/instruments/software/facsdiva/index.jsp/ RRID:SCR_001456), acquiring at least 10,000 events per sample or 25,000 cells per sample for cell cycle experiments.

BTECs = assay: Activity of mitochondrial ETC complexes I-IV in BTECs; type: cell-based, human; conditions: FLVCR1a-silenced vs scramble shRNA BTECs
Text: Results were expressed as nmol NAD*/min/mg mitochondrial protein for complex I, nmol reduced cytochrome c/min/mg mitochondrial protein for complexes II-III, nmol oxidized cytochrome c/min/mg mitochondrial protein for complex IV. Data represent mean±SEM, n=3. For statistical analyses, an unpaired Student's t-test was used; *=p<0.05, **=p<0.01, *=p<0.001. […] Results are expressed as nmol/mg mitochondrial proteins. Data represent mean±SEM, n=3. For statistical analyses, an unpaired Student's t-test was used; *=p<0.05. […] Results are expressed as pmol CO2/h/mg protein. Data represent mean±SEM, n=3. For statistical analyses, an unpaired Student's t-test was used; **=p<0.01. […] Results were expressed as nmol NAD*/min/mg mitochondrial protein for complex I, nmol reduced cytochrome c/min/mg mitochondrial protein for complexes II-III, nmol oxidized cytochrome c/min/mg mitochondrial protein for complex IV. […] Results are expressed as nmol/mg mitochondrial proteins. […] Results are expressed as pmol CO2/h/mg protein. […] (H) TCA cycle enzymes activities are reported in boxes and expressed as mU/mg mitochondrial proteins. […] Results were expressed as nmol NAD^+/min/mg mitochondrial protein for complex I, nmol reduced cytochrome c/min/mg mitochondrial protein for complexes II-III, nmol oxidized cytochrome c/min/mg mitochondrial protein for complex IV. […] Results are expressed as nmol/mg mitochondrial proteins. […]

In the case of “FLVCR1a shRNA: shRNA specifically down-regulating FLVCR1a without targeting FLVCR1b; pLKO.1 lentiviral clone TRCN0000059599, antisense SEQ ID No.: 2 (antisense TTGCTAATGATGCTGTACTGG; sense CCAGTACAGCATCATTAGCAA)”, the basal apoptosis (Caco2 cells) is reported as “higher extent of basal apoptosis” and the “activity of ETC complexes” value (BTECs) is reported as “enhanced activity of ETC complexes”.
